What all share (assay type): cell-based
In one assay the target is T1, SMARCA4 (Homo sapiens, UniProt P51532).
T1 construct: SMARCA2 and SMARCA4 protein degradation in MV4-11 cells; endogenous in cells; host or cells: MV4-11
In words: SMARCA4 Western blot MV4-11 degradation. The note with it: 24 h; for Dmax: MV4-11, MV4-11 cells, read-out: SMARCA4 MSD MV411 degradation 24 h: average Dmax %; for DC50: MV4-11 cells, read-out: SMARCA4 MSD MV411 degradation 24 h: Mean external-Abs DC50.

Assay [1] has as its target T2, SMARCA2 (Homo sapiens, UniProt P51531). In words: MSD SMARCA2 degradation in A549 cell line. Also on record: endogenous in cells. The note with it: 24 h; for Dmax: A549, A549 cells; for DC50: A549 cells, read-out: SMARCA2 MSD A549 degradation 24 h: Average external-Abs DC50. The essentials: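 A549 cells treated 24 h with compound, 3-fold series 1000 nM down to 0.152 nM plus DMSO. RIPA lysates captured on MSD plates, probed with rabbit anti-SMARCA2/BRM (1 µg/ml) then SULFO-TAG anti-rabbit, electrochemiluminescence read. DC50 and 24 h Dmax reported as letter bins.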

Assay [2] deals with T2, SMARCA2. The experiment in a line: SMARCA2 Western blot MV4-11 degradation. Also on record: SMARCA2 and SMARCA4 protein degradation in MV4-11 cells; endogenous in cells; host or cells: MV4-11. The note with it: 24 h; for Dmax: MV4-11, MV4-11 cells, read-out: SMARCA2 MSD MV411 degradation 24 h: average Dmax %; for DC50: MV4-11 cells, read-out: SMARCA2 MSD MV411 degradation 24 h: Mean external-Abs DC50.

T1 sequence (P51532 whole entry): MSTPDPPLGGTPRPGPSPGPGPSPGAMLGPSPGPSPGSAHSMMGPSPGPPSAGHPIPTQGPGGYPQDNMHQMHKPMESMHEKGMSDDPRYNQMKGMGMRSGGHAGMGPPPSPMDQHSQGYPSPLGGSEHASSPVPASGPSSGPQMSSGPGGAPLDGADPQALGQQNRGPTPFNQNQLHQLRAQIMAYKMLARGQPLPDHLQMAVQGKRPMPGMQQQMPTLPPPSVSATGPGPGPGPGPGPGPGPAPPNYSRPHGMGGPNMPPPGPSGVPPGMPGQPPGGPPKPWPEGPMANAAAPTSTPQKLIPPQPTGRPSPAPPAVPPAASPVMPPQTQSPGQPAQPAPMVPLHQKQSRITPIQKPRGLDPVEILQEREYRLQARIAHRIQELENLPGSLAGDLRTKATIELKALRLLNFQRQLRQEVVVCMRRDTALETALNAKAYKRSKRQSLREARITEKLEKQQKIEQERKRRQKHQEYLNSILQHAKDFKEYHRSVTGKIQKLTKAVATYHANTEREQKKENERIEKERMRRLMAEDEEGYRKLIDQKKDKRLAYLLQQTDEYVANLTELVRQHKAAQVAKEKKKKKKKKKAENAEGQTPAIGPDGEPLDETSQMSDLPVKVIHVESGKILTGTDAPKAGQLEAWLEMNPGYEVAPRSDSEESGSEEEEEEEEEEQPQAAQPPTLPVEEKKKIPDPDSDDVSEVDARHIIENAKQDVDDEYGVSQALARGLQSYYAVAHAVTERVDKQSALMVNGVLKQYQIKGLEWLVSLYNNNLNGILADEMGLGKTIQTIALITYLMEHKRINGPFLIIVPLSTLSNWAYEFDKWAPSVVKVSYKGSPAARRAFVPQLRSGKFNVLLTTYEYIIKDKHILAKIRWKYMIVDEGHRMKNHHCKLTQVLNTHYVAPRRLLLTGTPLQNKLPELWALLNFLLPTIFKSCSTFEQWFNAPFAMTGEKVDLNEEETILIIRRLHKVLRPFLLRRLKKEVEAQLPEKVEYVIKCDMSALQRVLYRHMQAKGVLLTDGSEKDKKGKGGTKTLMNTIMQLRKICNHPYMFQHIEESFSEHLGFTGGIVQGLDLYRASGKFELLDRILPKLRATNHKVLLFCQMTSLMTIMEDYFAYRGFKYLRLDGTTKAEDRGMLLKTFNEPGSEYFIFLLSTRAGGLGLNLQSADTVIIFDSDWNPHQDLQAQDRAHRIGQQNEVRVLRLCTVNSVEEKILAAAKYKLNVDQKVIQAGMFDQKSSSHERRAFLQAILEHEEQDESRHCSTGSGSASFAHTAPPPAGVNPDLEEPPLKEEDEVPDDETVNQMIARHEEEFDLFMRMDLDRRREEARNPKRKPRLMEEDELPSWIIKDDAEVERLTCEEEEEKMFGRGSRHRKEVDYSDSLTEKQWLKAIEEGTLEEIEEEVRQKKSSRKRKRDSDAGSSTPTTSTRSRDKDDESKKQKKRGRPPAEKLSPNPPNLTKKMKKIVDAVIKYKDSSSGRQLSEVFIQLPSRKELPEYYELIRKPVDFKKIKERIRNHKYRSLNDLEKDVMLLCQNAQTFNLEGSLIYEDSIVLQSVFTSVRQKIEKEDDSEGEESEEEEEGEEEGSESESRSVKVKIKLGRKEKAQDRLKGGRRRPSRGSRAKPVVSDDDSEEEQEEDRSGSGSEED
T2 sequence (P51531 whole entry): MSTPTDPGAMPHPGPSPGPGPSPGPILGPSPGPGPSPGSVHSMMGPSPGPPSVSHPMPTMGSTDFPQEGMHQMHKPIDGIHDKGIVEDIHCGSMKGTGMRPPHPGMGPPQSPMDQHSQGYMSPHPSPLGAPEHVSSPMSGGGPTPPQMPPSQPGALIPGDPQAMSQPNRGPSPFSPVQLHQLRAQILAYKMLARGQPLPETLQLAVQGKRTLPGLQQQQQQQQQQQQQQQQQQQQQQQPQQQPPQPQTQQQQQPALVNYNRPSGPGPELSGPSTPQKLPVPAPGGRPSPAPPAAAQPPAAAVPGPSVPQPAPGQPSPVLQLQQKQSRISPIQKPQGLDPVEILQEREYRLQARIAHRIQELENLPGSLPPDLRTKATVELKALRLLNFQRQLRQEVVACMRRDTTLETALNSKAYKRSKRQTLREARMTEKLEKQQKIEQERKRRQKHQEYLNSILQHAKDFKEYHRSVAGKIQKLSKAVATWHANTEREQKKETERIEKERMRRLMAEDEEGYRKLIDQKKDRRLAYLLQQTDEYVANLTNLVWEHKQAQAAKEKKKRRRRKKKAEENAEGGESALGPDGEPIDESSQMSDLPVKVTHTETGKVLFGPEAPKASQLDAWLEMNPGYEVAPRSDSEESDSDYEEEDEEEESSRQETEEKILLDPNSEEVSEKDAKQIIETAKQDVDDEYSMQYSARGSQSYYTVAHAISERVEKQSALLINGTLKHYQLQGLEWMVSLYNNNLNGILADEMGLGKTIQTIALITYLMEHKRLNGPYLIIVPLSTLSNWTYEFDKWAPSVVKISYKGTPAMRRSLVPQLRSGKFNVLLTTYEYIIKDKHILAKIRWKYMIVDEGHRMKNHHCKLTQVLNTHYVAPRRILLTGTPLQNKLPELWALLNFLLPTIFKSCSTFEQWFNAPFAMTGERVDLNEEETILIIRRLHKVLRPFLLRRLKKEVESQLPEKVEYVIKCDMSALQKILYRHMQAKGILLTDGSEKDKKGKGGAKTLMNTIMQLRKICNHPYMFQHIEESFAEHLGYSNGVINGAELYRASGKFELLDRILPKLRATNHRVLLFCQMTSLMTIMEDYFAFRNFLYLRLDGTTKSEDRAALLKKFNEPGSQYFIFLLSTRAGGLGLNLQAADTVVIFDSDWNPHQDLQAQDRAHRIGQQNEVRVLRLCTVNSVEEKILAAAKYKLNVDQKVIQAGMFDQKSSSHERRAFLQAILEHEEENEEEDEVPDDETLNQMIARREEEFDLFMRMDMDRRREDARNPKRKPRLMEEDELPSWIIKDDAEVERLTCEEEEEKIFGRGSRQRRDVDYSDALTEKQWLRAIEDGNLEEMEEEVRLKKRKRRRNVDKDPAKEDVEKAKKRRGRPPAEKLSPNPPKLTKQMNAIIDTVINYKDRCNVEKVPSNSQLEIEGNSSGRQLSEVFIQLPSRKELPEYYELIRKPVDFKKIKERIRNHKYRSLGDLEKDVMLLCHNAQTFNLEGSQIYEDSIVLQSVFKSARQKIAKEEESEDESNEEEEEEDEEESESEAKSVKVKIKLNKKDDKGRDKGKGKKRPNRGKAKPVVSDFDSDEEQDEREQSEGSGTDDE

Regarding `Cn1nccc1-c1ccc(CNC(=O)[C@@H]2C[C@@H](O)CN2C(=O)[C@@H](NC(=O)[C@H]2CC3(C2)C[C@H](N2CCC(c4cnc(N5C6CCC5CN(c5cc(-c7ccccc7O)nnc5N)C6)nc4)CC2)C3)C(C)(C)C)cc1` (stereo partly drawn) [I-35, (2S,4R)-1-((2S)-2-(6-(4-(2-(3-(3-amino-6-(2-hydroxyphenyl)pyridazin-4-yl)-3,8-diazabicyclo[3.2.1]octan-8-yl)pyrimidin-5-yl)piperidin-1-yl)spiro[3.3]heptane-2-carboxamido)-3,3-dimethylbutanoyl)-4-hydroxy-N-(4-(1-methyl-1H-pyrazol-5-yl)benzyl)pyrrolidine-2-carboxamide], the figures for the Dmax at SMARCA4, at SMARCA2 [1] and on SMARCA2 [2] were 50 to 70%, 70 to 90% and 70 to 90%, respectively. For the same compound, the DC50 (as a rule, the concentration at which degradation of the target reaches its halfway point) at SMARCA4 was greater than 1000 nM; at SMARCA2 [1], 100 to 500 nM; at SMARCA2 [2], less than 100 nM.

For the compound `Cc1ncsc1-c1ccc(CNC(=O)[C@@H]2C[C@@H](O)CN2C(=O)[C@@H](NC(=O)[C@H]2CC3(C2)C[C@H](N2CC4(CN(c5cnc(N6C7CCC6CN(c6cc(-c8ccccc8O)nnc6N)C7)nc5)C4)C2)C3)C(C)(C)C)cc1` (stereo partly drawn) [I-12, (2S,4R)-1-((2S)-2-(6-(6-(2-(3-(3-amino-6-(2-hydroxyphenyl)pyridazin-4-yl)-3,8-diazabicyclo[3.2.1]octan-8-yl)pyrimidin-5-yl)-2,6-diazaspiro[3.3]heptan-2-yl)spiro[3.3]heptane-2-carboxamido)-3,3-dimethylbutanoyl)-4-hydroxy-N-(4-(4-methylthiazol-5-yl)benzyl)pyrrolidine-2-carboxamide], the DC50 is greater than 1000 nM at SMARCA4, 100 to 500 nM on SMARCA2 [1] and less than 100 nM on SMARCA2 [2].

With `Cc1ncsc1-c1ccc(CNC(=O)[C@@H]2C[C@@H](O)CN2C(=O)[C@@H](c2cc(OCCCCN3CCC(c4cnc(N5C6CCC5CN(c5cc(-c7ccccc7O)nnc5N)C6)nc4)CC3)no2)C(C)C)cc1` [I-55, (2S,4R)-1-((2R)-2-(3-(4-(4-(2-(3-(3-amino-6-(2-hydroxyphenyl)pyridazin-4-yl)-3,8-diazabicyclo[3.2.1]octan-8-yl)pyrimidin-5-yl)piperidin-1-yl)butoxy)isoxazol-5-yl)-3-methylbutanoyl)-4-hydroxy-N-(4-(4-methylthiazol-5-yl)benzyl)pyrrolidine-2-carboxamide], the Dmax at SMARCA4, on SMARCA2 [1] and at SMARCA2 [2] was greater than 90% throughout. The DC50 on SMARCA4, on SMARCA2 [1] and on SMARCA2 [2] was less than 100 nM each time.

Consider `Cc1ncsc1-c1ccc(CNC(=O)[C@@H]2C[C@@H](O)CN2C(=O)C(c2cc(OCCCOCCCN3CCC(Cn4cc(-c5cc(-c6ccccc6O)nnc5N)cn4)CC3)no2)C(C)C)cc1` (stereo partly drawn) [I-21, (2S,4R)-1-(2-(3-(3-(3-(4-((4-(3-amino-6-(2-hydroxyphenyl)pyridazin-4-yl)-1H-pyrazol-1-yl)methyl)piperidin-1-yl)propoxy)propoxy)isoxazol-5-yl)-3-methylbutanoyl)-4-hydroxy-N-(4-(4-methylthiazol-5-yl)benzyl)pyrrolidine-2-carboxamide], for which the figures for the Dmax at SMARCA4, at SMARCA2 [1] and at SMARCA2 [2] were 70 to 90%, greater than 90% and greater than 90%, respectively. Besides, the DC50 on SMARCA4 is 501 to 1000 nM; at SMARCA2 [1], greater than 1000 nM; at SMARCA2 [2], less than 100 nM.

As to `Cc1ncsc1-c1ccc(CNC(=O)[C@@H]2C[C@@H](O)CN2C(=O)[C@@H](NC(=O)[C@H]2CC3(C2)C[C@H](N2CCC(c4ccc(N5C6CCC5CN(c5cc(-c7ccccc7O)nnc5N)C6)cc4)CC2)C3)C(C)(C)C)nc1` (stereo partly drawn) [I-24, (2S,4R)-1-((2S)-2-(6-(4-(4-(3-(3-amino-6-(2-hydroxyphenyl)pyridazin-4-yl)-3,8-diazabicyclo[3.2.1]octan-8-yl)phenyl)piperidin-1-yl)spiro[3.3]heptane-2-carboxamido)-3,3-dimethylbutanoyl)-4-hydroxy-N-((5-(4-methylthiazol-5-yl)pyridin-2-yl)methyl)pyrrolidine-2-carboxamide], the DC50 was greater than 1000 nM at SMARCA4, greater than 1000 nM on SMARCA2 [1] and 100 to 500 nM at SMARCA2 [2].

Source of the values: patent US12606568B2, “SMARCA degraders and uses thereof” (Kymera Therapeutics, Inc., priority 2020, dated 2026).
